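96-well plates; 48 h exposure; 5 concentrations. Endpoints by linear interpolation between flanking doses. Not reached: highest tested concentration assigned. GI50: concentration for 50% inhibition of growth.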 Activity calls are given as the source filed them. Cut-off read from the data, not from the text of the source: active = GI50 up to about 1.1 µM and inactive = higher.

Among the test systems are SF-295; LOX IMVI; SK-MEL-28; SK-MEL-2; TK-10; M14; RPMI-8226; OVCAR-4; NCI-H522; OVCAR-5; SK-OV-3; CAKI-1; HL-60; NCI-H460; SK-MEL-5; HCT-116; XF498; KM-20L2; DMS-273; HCC 2998.
Assay in all cases: growth of human tumour cells (NCI), 48 h

`CCOC(=O)c1c(-c2cccc(Cl)c2)c(C(=O)OC)c(C)c2sc(C=O)nc12`: the GI50 in the assay on SF-295 is 15.8 µM (inactive); in the assay with LOX IMVI it was 14.3 µM (inactive); in the assay on SK-MEL-28, 18 µM (inactive); in the assay with SK-MEL-2, 16.8 µM (inactive); with TK-10, 29.3 µM (inactive); in the assay on M14, 17 µM (inactive). Also, the GI50 in the assay with RPMI-8226 is 14.1 µM (inactive); in the assay on OVCAR-4 it was 20 µM (inactive); with NCI-H522, 16 µM (inactive); in the assay with OVCAR-5 it was 17.5 µM (inactive); in the assay with SK-OV-3, 26.7 µM (inactive); in the assay with CAKI-1, 17.5 µM (inactive). Moreover, the GI50 was 17.7 µM (inactive) in the assay with HL-60, 19.5 µM (inactive) with NCI-H460, 14.3 µM (inactive) in the assay with SK-MEL-5 and 7.14 µM (inactive) in the assay on HCT-116.

As to `CN1C2CCC1/C(=C/c1cccc3c1OCO3)C(=O)/C2=C\c1cccc2c1OCO2`, the GI50 in the assay with XF498 was 25.3 µM (inactive); in the assay on SF-295, 22.1 µM (inactive); with LOX IMVI, > 100 µM (inactive); in the assay on KM-20L2, > 100 µM (inactive); with SK-MEL-28, > 100 µM (inactive); in the assay with SK-MEL-2, > 100 µM (inactive). Besides, the GI50 is 21.3 µM (inactive) in the assay with TK-10; 59 µM (inactive) in the assay with M14; > 100 µM (inactive) in the assay on RPMI-8226; 45 µM (inactive) in the assay on DMS-273; > 100 µM (inactive) with OVCAR-5; 85.7 µM (inactive) in the assay on SK-OV-3. Besides, the GI50 is > 100 µM (inactive) with HL-60; > 100 µM (inactive) in the assay on NCI-H460; > 100 µM (inactive) in the assay on HCC 2998; 37.9 µM (inactive) in the assay with SK-MEL-5; > 100 µM (inactive) in the assay on HCT-116.

On to `CC1(C)N=C(N)N=C(N)N1c1ccc(CCc2ccccc2)cc1`, for which the GI50 with XF498 was < 0.01 µM (active); in the assay with SF-295 it was 2.17 µM (inactive); in the assay with LOX IMVI it was 0.675 µM (active); with KM-20L2, 1.16 µM (inactive); with SK-MEL-28, 6.01 µM (inactive); in the assay on SK-MEL-2, 8.85 µM (inactive). In addition, the GI50 was 17.4 µM (inactive) with RPMI-8226; 3.53 µM (inactive) with OVCAR-4; 0.7 µM (active) in the assay with DMS-273; 3.03 µM (inactive) in the assay with NCI-H522; 1.92 µM (inactive) with OVCAR-5; 48.4 µM (inactive) in the assay with SK-OV-3. The GI50 in the assay with CAKI-1 is 21.6 µM (inactive); in the assay on HL-60, 13.3 µM (inactive); in the assay on NCI-H460, 0.508 µM (active); in the assay on HCC 2998, 2.14 µM (inactive); in the assay with SK-MEL-5, 0.741 µM (active); in the assay on HCT-116, 0.619 µM (active).

Take `CCCCCC(/C=C/c1ncccc1OCCCCCC(=O)O)=N\NC1=NCCN1`: the GI50 was 27.3 µM (inactive) in the assay with XF498; > 100 µM (inactive) in the assay with SF-295; 74 µM (inactive) in the assay with LOX IMVI; > 100 µM (inactive) in the assay on KM-20L2; > 100 µM (inactive) in the assay with SK-MEL-28; 48.9 µM (inactive) with SK-MEL-2. Moreover, the GI50 with TK-10 is > 100 µM (inactive); in the assay on M14 it was > 100 µM (inactive); in the assay on RPMI-8226, 29.4 µM (inactive); in the assay with OVCAR-4, 78.7 µM (inactive); with DMS-273, 42.9 µM (inactive); with NCI-H522 it was 50.8 µM (inactive). In addition, the GI50 in the assay with OVCAR-5 was > 100 µM (inactive); in the assay with SK-OV-3, > 100 µM (inactive); in the assay on CAKI-1 it was > 100 µM (inactive); in the assay on HL-60, 57.8 µM (inactive); in the assay on NCI-H460 it was 51.9 µM (inactive); with HCC 2998, > 100 µM (inactive). Besides, in the assay with HCT-116, the GI50 was 43.4 µM (inactive).

Source of the values: ChEMBL document CHEMBL1201862, “PubChem BioAssay data set” (2004).
